Patent US20100311714A1, “1H-IMIDAZO[4,5-c]QUINOLINONE COMPOUNDS” (priority 2009, published 2010)
Where two headings read alike, the source gives them in different places.

Tests used:
[1] = test system: S6 Ribosomal Protein phosphorylation Ser235/236 in TSC1 null mouse embryo fibroblast (MEF) cells; assay: Reverse protein array, S6 Ribosomal Protein phosphorylation in TSC1 null MEF cells; format: cell-based; settings: 1 h, TSC1-/- MEFs, 60 minutes
Outline: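 Phospho-S6 (Ser235/236) was quantified by reverse protein array of cell lysates with a phospho-specific primary antibody. […]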

PI3K alfa = biological target: T1, PI3K alfa (Homo sapiens, UniProt P42336); assay: PI3K alpha kinase assay (Kinase-Glo luminescence); format: biochemical
T1 construct: His tag (C); made in house; host or cells: baculovirus BV1075; Tn5 (Trichoplusia ni) or TiniPro insect cells
Outline: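 Kinase-Glo luminescence read of ATP remaining after PI3Kα (10 nM) phosphorylates 10 μg/mL bovine liver phosphatidylinositol with 1 μM ATP, pH 7.5 TRIS, 3 mM MgCl2, 0.05% CHAPS; 60 min at room temperature. IC50 from 4-parameter logistic fit over 8 concentrations.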

T1 sequence (P42336 with tags, fused parts or gaps limits assumed): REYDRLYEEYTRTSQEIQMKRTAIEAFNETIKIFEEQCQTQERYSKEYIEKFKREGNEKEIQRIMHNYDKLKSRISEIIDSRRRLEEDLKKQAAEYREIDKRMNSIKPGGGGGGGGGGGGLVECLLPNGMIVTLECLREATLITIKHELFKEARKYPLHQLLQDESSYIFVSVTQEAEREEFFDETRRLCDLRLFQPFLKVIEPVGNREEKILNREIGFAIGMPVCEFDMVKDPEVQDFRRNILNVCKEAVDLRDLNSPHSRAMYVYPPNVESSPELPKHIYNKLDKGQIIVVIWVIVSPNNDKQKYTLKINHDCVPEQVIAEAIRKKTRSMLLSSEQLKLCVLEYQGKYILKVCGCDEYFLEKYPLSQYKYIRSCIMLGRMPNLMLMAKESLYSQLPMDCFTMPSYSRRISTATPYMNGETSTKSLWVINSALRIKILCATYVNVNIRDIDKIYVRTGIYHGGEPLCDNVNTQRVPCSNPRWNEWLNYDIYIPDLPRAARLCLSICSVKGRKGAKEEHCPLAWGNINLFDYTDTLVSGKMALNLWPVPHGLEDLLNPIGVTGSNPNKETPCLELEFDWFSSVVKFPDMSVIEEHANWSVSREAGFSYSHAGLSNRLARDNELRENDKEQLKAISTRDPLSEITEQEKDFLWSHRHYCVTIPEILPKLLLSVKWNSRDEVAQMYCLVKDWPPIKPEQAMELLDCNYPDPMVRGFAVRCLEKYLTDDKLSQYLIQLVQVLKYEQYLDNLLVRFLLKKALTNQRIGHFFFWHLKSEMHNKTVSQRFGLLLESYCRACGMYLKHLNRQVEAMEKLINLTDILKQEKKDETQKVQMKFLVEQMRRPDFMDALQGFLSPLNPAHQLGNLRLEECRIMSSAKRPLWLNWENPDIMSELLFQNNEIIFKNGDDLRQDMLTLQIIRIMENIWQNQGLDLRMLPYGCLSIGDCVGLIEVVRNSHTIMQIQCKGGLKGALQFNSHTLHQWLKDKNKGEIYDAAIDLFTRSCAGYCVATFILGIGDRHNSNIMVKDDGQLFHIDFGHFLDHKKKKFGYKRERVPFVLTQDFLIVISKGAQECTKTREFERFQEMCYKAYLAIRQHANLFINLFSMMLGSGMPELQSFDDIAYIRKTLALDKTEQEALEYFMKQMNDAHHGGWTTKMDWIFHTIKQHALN

Row | Compound | IC50 ([1]; read-out: p-S6) [nM] | IC50 (PI3K alfa; read-out: PI3Kalfa/IC50) [nM] | IC50 ([1]; read-out: p-S6 IC50) [nM] | IC50 (PI3K alfa; read-out: EPK_PI3Kalfa/IC50) [nM]
1 | CCOc1ncc(-c2ccc3ncc4c(c3c2)n(-c2cccnc2C)c(=O)n4C)cn1 [Example 2.5, 8-(2-Ethoxy-pyrimidin-5-yl)-3-methyl-1-(2-methyl-pyridin-3-yl)-1,3-dihydro-imidazo[4,5-c]quinolin-2-one] | 237 | 119 |  | 
2 | COc1ccc(-c2ccc3ncc4c(c3c2)n(-c2cnccc2C)c(=O)n4C)cn1 [Example 4.3, 8-(6-Methoxy-pyridin-3-yl)-3-methyl-1-(4-methyl-pyridin-3-yl)-1,3-dihydro-imidazo[4,5-c]quinolin-2-one] | 220 | 73 |  | 
3 | Cn1c(=O)n(-c2cccnc2F)c2c3cc(-c4cnc(N)c(C(F)(F)F)c4)ccc3ncc21 [Example 6.2, 8-(6-Amino-5-trifluoromethyl-pyridin-3-yl)-1-(2-fluoro-pyridin-3-yl)-3-methyl-1,3-dihydro-imidazo[4,5-c]quinolin-2-one] | 1.47 | 9 |  | 
4 | Cc1nc(N2CCC2)ccc1-n1c(=O)n(C)c2cnc3ccc(-c4cncc(N5CCC5)c4)cc3c21 [Example 23.1, 1-(6-Azetidin-1-yl-2-methyl-pyridin-3-yl)-8-(5-azetidin-1-yl-pyridin-3-yl)-3-methyl-1,3-dihydro-imidazo[4,5-c]quinolin-2-one] |  |  | 2 | 14
5 | Cc1cccnc1-n1c(=O)n(C)c2cnc3ccc(-c4cnc(N)c(C(F)(F)F)c4)cc3c21 [Example 3.12, 8-(6-Amino-5-trifluoromethyl-pyridin-3-yl)-3-methyl-1-(3-methyl-pyridin-2-yl)-1,3-dihydro-imidazo[4,5-c]quinolin-2-one] | 13.2 | 16 |  | 
6 | Cc1nc(F)ccc1-n1c(=O)n(C)c2cnc3ccc(-c4cnc(N)c(C(F)(F)F)c4)cc3c21 [Example 7.1, 8-(6-Amino-5-trifluoromethyl-pyridin-3-yl)-1-(6-fluoro-2-methyl-pyridin-3-yl)-3-methyl-1,3-dihydro-imidazo[4,5-c]quinolin-2-one] | 2.23 | 4 |  | 
7 | Cc1ncccc1-n1c(=O)n(C)c2cnc3ccc(-c4ccc(CO)nc4)cc3c21 [Example 2.6, 8-(6-Hydroxymethyl-pyridin-3-yl)-3-methyl-1-(2-methyl-pyridin-3-yl)-1,3-dihydro-imidazo[4,5-c]quinolin-2-one] | 66.1 | 100 |  | 
8 | CNc1ncc(-c2ccc3ncc4c(c3c2)n(-c2ccc(N3CCC(O)C3)nc2C)c(=O)n4C)cn1 (stereo not drawn) [Example 27.2, 1-[6-(3-Hydroxy-pyrrolidin-1-yl)-2-methyl-pyridin-3-yl]-3-methyl-8-(2-methylamino-pyrimidin-5-yl)-1,3-dihydro-imidazo[4,5-c]quinolin-2-one] |  |  | 2 | 32
9 | CNc1ncc(-c2ccc3ncc4c(c3c2)n(-c2ccc(N3CC(O)C3)nc2C)c(=O)n4C)cc1C(F)(F)F [Example 29.4, 1-[6-(3-Hydroxy-azetidin-1-yl)-2-methyl-pyridin-3-yl]-3-methyl-8-(6-methylamino-5-trifluoromethyl-pyridin-3-yl)-1,3-dihydro-imidazo[4,5-c]quinolin-2-one] |  |  | 1.7 | 17
10 | COc1cc(-c2ccc3ncc4c(c3c2)n(-c2ccc(N3CC(O)C3)nc2C)c(=O)n4C)cnc1CO [Example 29.5, 1-[6-(3-Hydroxy-azetidin-1-yl)-2-methyl-pyridin-3-yl]-8-(6-hydroxymethyl-5-methoxy-pyridin-3-yl)-3-methyl-1,3-dihydro-imidazo[4,5-c]quinolin-2-one] |  |  | 39.1 | 31
11 | CCNc1cc(-c2ccc3ncc4c(c3c2)n(-c2cccnc2C)c(=O)n4C)cnc1CO [Example 2.31, 8-(5-Ethylamino-6-hydroxymethyl-pyridin-3-yl)-3-methyl-1-(2-methyl-pyridin-3-yl)-1,3-dihydro-imidazo[4,5-c]quinolin-2-one] |  |  | 21 | 14
12 | CNc1cncc(-c2ccc3ncc4c(c3c2)n(-c2cccnc2C)c(=O)n4C)c1 [Example 2.26, 3-Methyl-8-(5-methylamino-pyridin-3-yl)-1-(2-methyl-pyridin-3-yl)-1,3-dihydro-imidazo[4,5-c]quinolin-2-one] |  |  | 6 | 14
13 | CCOc1cc(-c2ccc3ncc4c(c3c2)n(-c2ccc(F)nc2C)c(=O)n4C)cnc1COC [Example 7.5, 8-(5-Ethoxy-6-methoxymethyl-pyridin-3-yl)-1-(6-fluoro-2-methyl-pyridin-3-yl)-3-methyl-1,3-dihydro-imidazo[4,5-c]quinolin-2-one] |  |  | 21 | 94
14 | Cc1nc(C(F)(F)F)ccc1-n1c(=O)n(C)c2cnc3ccc(-c4cncc(C(C)(C)O)c4)cc3c21 [Example 33.1, 8-[5-(1-Hydroxy-1-methyl-ethyl)-pyridin-3-yl]-3-methyl-1-(2-methyl-6-trifluoromethyl-pyridin-3-yl)-1,3-dihydro-imidazo[4,5-c]quinolin-2-one] |  |  | 2 | 13
15 | CCOc1cc(-c2ccc3ncc4c(c3c2)n(-c2cccnc2C)c(=O)n4C)cnc1COC [Example 2.28, 8-(5-Ethoxy-6-methoxymethyl-pyridin-3-yl)-3-methyl-1-(2-methyl-pyridin-3-yl)-1,3-dihydro-imidazo[4,5-c]quinolin-2-one] |  |  | 14 | 267
